In US6706470B2, “Gene switches” (priority 1999, dated 2004):
Starred links: 1 amine or outer side, 2 acyl side, 3 side chain; linkers in the order of their positions; H or OH if unused. Positions of bridges follow the written chain, without caps; N, C: chain ends. Non-standard residues stand in square brackets, D forms with d. Residues, ends and D or L forms follow the SMILES beside them. Chains are numbered I, II in the order given. Actinocin(9to1) = Cc1c2oc3c(C)ccc(C(=O)[*:1])c3nc-2c(C(=O)[*:2])c(N)c1=O; NMeV = CN[C@H](C(=O)O)C(C)C; Sar = CNCC(=O)O

How the values were obtained:
DNA target AGCTTGGCG = experiment: Dissociation of zinc finger phage from its DNA target by actinomycin D; assay type: binding
Experimental: (§1) This example describes phage that bound DNA targets with higher affinity in the absence of ligand. These phage were isolated using either: (a) the same method as in example 1.1, or (b) by selection in the absence of small molecule and phage elution from DNA using a small molecule.
(§2) Phage selection is over 4 rounds. Binding reactions contain 10 pmol biotinylated DNA site immobilised on 50 mg streptavidin coated beads (Dynal) and a 1 ml solution of zinc finger phage library (as described in 1.1) Reactions were incubated for 1 h on a rolling platform. After this time, beads were washed 20 times as described in 1.1 and finally phage were eluted from the beads over 5 minutes using a solution containg ligand (10 μM Distamycin A, or 1 μM Actinomycin D in PBS/Zn).
The actinomycin D sensitive clone was selected with the DNA target AGCTTGGCG and its helices were sequenced as: […]

DNA sequence AAAAAGGCG = experiment: Phage ELISA: zinc finger phage binding to DNA with and without distamycin A; details: DNA concentration constant at 2 nM
[1] = system: DNA target AAAAAGCGGAAAAA; experiment: Dissociation of zinc finger phage from its DNA target by distamycin A; assay type: binding
Experimental: as §1, §2
Some phage isolated by either of the above methods (a or b) bound DNA in the absence of ligand but could be displaced by concentrations of distamycin A at 10 μM and actinomycin D at 1 μM. The distamycin sensitive clone was selected using the DNA target AAAAAGCGGAAAAA (SEQ ID NO:48) and its helices were sequenced as: […]

[2] = system: CAT reporter gene downstream of the sequence AAAAAAGGCG; experiment: Transient transfection CAT reporter assay; assay type: cell-based; details: in the presence of Distamycin A; zinc finger-HSV VP16 fusion cotransfected

## Cc1c2oc3c(C)ccc(C(=O)N[C@@H]4C(=O)N[C@H](C(C)C)C(=O)N5CCC[C@H]5C(=O)N(C)CC(=O)N(C)[C@@H](C(C)C)C(=O)O[C@@H]4C)c3nc-2c(C(=O)N[C@@H]2C(=O)N[C@H](C(C)C)C(=O)N3CCC[C@H]3C(=O)N(C)CC(=O)N(C)[C@@H](C(C)C)C(=O)O[C@@H]2C)c(N)c1=O [actinomycin D] (I: T[dV]P[Sar][NMeV] / II: T[dV]P[Sar][NMeV]; ester I:1-I:C, II:1-II:C; linker I:N-II:N via Actinocin(9to1))
DNA target AGCTTGGCG; FIG. 6
  effect of ligand on phage binding to specific DNA sequence: dissociated from the DNA
DNA target AGCTTGGCG; actinomycin D sensitive clone
  ligand concentration that displaces DNA-bound phage: 1 µM

## Cn1cc(NC(=O)c2cc(NC(=O)c3cc(NC=O)cn3C)cn2C)cc1C(=O)NCCC(=N)N [distamycin A]
DNA sequence AAAAAGGCG
  ligand concentration at which phage retention is close to background level: ≤ 10^−9 M
[1]; FIG. 6
  effect of ligand on phage binding to specific DNA sequence: dissociated from the DNA
[1]; distamycin sensitive clone
  ligand concentration that displaces DNA-bound phage: 10 µM
[2]
  CAT gene expression: CAT expression is observed
